From ChEMBL document CHEMBL3045439, “Isoforms of the heteropteran Nezara viridula ecdysone receptor: protein characterisation, RH5992 insecticide binding and homology modelling” (Pest Manag Sci, 2011)
pIC50, pKi: −log10 of the molar value.

Tests used:
Type in all cases: protein-complex assay
Ecdysone receptor [1] = target: T1, Ecdysone receptor (Nezara viridula, UniProt E5L6Y0+E5L6Y1); assay: Displacement of [3H]PonA from recombinant Nezara viridula EcR10
T1 sequence (E5L6Y1 whole entry): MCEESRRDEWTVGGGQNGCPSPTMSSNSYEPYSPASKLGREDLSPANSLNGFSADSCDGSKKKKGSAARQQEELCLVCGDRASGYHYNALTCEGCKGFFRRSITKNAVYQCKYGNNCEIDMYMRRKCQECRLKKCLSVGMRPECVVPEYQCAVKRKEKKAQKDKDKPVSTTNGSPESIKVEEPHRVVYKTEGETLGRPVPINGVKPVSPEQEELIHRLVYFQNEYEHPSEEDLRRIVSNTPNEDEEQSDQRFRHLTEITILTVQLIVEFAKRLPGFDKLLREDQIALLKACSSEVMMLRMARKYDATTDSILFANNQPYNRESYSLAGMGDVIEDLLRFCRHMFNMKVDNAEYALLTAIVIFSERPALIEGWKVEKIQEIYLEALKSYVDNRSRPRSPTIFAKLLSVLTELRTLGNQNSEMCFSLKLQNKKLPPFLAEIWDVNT
T1 sequence (E5L6Y0 whole entry): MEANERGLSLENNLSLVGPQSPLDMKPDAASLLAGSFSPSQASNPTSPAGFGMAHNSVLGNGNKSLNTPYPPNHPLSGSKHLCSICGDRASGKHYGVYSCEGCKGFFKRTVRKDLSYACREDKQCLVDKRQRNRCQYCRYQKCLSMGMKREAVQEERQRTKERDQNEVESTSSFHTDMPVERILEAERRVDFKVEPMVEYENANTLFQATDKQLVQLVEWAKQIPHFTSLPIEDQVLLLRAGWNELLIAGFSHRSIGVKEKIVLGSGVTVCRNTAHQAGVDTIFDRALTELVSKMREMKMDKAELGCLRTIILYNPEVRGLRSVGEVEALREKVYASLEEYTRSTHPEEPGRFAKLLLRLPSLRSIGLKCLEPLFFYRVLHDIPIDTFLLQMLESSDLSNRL

Ecdysone receptor [2] = target: T1, Ecdysone receptor; assay: Displacement of [3H]PonA from recombinant Nezara viridula EcR11
Ecdysone receptor [3] = target: T2, Ecdysone receptor (Drosophila melanogaster, UniProt P20153+P34021); assay: Binding affinity to Drosophila melanogaster EcR
T2 sequence (P34021 whole entry): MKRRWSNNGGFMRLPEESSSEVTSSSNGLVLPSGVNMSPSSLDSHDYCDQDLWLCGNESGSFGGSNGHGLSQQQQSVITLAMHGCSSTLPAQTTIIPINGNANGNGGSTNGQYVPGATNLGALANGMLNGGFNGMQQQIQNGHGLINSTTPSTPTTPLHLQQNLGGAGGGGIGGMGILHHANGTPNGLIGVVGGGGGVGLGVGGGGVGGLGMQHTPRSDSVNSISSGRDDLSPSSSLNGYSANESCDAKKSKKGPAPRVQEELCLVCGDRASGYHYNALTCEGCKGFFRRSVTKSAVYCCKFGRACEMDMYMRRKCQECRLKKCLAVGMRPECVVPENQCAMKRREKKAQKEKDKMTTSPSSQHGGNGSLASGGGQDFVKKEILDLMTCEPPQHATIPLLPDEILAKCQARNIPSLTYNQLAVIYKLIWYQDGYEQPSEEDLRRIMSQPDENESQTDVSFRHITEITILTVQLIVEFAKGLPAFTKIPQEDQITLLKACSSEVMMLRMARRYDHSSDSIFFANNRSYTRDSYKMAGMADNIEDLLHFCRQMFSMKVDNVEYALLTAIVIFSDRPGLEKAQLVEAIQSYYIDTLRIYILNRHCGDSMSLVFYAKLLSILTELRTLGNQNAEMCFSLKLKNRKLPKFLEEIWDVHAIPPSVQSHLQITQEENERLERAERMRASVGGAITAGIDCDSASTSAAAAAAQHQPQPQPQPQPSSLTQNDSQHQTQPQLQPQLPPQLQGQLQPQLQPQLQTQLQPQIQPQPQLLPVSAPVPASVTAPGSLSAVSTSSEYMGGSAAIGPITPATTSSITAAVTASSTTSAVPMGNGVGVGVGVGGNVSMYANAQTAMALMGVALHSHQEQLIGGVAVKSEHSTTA
T2 sequence (P20153 whole entry): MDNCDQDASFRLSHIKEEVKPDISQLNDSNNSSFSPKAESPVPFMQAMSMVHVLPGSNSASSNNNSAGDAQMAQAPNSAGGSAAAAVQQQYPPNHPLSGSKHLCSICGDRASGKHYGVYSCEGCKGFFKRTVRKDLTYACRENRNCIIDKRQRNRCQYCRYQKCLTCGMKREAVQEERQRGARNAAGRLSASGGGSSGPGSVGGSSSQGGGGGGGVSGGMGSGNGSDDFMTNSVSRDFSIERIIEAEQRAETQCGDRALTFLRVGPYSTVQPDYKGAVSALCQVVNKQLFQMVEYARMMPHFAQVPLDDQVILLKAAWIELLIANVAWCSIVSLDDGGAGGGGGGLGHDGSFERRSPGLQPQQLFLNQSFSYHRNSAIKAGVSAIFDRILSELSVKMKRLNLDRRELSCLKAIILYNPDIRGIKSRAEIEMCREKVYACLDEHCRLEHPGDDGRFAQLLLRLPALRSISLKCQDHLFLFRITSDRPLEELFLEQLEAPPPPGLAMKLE

Ecdysone receptor [4] = target: T3, Ecdysone receptor (Spodoptera frugiperda, UniProt Q8MWR1+Q8MWR2); assay: Binding affinity to Spodoptera frugiperda (fall armyworm) EcR
T3 sequence (Q8MWR2 whole entry): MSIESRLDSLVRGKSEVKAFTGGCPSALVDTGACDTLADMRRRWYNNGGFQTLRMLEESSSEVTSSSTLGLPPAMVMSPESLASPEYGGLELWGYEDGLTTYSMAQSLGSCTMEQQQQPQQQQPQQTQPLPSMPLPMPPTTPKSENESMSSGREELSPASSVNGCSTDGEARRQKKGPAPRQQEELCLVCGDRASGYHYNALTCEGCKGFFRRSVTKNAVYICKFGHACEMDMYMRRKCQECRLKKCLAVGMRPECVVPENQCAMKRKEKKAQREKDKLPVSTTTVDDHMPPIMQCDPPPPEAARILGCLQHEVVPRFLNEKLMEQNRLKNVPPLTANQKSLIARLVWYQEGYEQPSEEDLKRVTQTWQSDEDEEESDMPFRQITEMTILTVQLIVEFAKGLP
T3 sequence (Q8MWR1 whole entry): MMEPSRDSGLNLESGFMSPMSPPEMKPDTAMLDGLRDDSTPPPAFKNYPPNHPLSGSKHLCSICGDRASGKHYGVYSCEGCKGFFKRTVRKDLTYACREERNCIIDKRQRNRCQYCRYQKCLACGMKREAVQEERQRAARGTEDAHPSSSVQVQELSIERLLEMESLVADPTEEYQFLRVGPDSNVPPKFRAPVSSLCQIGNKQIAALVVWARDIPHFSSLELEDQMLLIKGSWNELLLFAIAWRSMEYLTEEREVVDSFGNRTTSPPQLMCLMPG

Ecdysone receptor [5] = target: T1, Ecdysone receptor; assay: Binding affinity to Nezara viridula EcR
Ecdysone receptor [6] = target: T4, Ecdysone receptor (Leptinotarsa decemlineata, UniProt Q4W6C8+Q4W6D0); assay: Binding affinity to Leptinotarsa decemlineata EcR
T4 sequence (Q4W6D0 whole entry): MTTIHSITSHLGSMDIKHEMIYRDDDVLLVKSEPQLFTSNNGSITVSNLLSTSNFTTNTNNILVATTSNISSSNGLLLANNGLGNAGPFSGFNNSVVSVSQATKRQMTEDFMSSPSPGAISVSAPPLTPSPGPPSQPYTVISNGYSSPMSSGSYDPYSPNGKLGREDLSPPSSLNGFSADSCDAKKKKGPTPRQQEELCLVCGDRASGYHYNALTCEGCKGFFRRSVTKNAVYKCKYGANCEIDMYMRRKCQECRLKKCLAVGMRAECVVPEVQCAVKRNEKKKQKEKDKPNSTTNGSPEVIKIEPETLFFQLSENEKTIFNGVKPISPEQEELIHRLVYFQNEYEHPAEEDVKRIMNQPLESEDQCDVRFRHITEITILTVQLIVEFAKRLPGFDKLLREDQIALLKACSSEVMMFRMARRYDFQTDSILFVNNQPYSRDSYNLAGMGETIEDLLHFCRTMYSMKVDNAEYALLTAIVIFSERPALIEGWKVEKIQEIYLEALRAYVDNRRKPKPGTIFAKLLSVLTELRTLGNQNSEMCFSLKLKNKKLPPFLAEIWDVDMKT
T4 sequence (Q4W6C8 whole entry): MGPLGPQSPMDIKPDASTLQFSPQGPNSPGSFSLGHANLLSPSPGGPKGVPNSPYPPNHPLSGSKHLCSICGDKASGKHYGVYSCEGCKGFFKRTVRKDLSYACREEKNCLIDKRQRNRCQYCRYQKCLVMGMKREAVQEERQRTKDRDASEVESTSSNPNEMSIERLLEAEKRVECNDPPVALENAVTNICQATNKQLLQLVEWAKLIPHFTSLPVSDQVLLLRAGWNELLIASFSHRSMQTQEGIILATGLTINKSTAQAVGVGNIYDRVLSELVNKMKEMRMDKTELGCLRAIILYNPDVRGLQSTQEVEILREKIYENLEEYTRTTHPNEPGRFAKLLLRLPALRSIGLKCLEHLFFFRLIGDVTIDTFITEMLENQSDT

SMILES | pIC50 (Ecdysone receptor [1]) | pKi (Ecdysone receptor [1]) | pIC50 (Ecdysone receptor [2]) | pKi (Ecdysone receptor [2]) | pIC50 (Ecdysone receptor [3]) | pIC50 (Ecdysone receptor [4]) | pIC50 (Ecdysone receptor [5]) | pIC50 (Ecdysone receptor [6])
C[C@H]([C@H](O)CCC(C)(C)O)[C@H]1CC[C@@]2(O)C3=CC(=O)[C@@H]4C[C@@H](O)[C@@H](O)C[C@]4(C)[C@H]3CC[C@]12C [ECDYSONE] | 4.22 | 4.30 | 4.22 | 4.29 |  |  |  | 
CC(CO)CC[C@@H](O)[C@](C)(O)[C@H]1CC[C@@]2(O)C3=CC(=O)[C@@H]4C[C@@H](O)[C@@H](O)C[C@]4(C)[C@H]3CC[C@]12C (stereo not given in full) [INOKOSTERONE] | 5.10 | 5.17 | 5.15 | 5.22 |  |  |  | 
C[C@H](C[C@@H](O)[C@](C)(O)[C@H]1CC[C@@]2(O)C3=CC(=O)[C@@H]4C[C@@H](O)[C@@H](O)C[C@]4(C)[C@H]3CC[C@]12C)C(C)(C)O [MAKISTERONE A] |  |  |  |  | 5.86 | 6.41 | 5.86 | 5.76
CC(C)CC[C@@H](O)[C@](C)(O)[C@H]1CC[C@@]2(O)C3=CC(=O)[C@]4(O)C[C@@H](O)[C@@H](O)C[C@]4(C)[C@H]3[C@H](O)C[C@]12C [MURISTERONE A] | 6.89 | 7.00 | 6.82 | 7.00 |  |  |  | 
CC(C)CC[C@@H](O)[C@](C)(O)[C@H]1CC[C@@]2(O)C3=CC(=O)[C@@H]4C[C@@H](O)[C@@H](O)C[C@]4(C)[C@H]3CC[C@]12C [PONASTERONE A] | 6.55 | 6.70 | 6.60 | 6.70 |  |  |  | 
